Data as given in patent US8198266B2, “Use of an EGFR antagonist for the treatment of glomerolonephritis” (INSERM (Institut National de la Sante et de la Recherche …, priority 2006, dated 2012).
Entries after “also recorded” stand apart in the source; their conditions may differ.

Columns and labels:
[1] = system: anti-GBM nephrotoxic serum-induced crescentic glomerulonephritis (RPGN) in mice; assay: Survival in accelerated anti-GBM crescentic glomerulonephritis; conditions: AG1478-treated HB-EGF(+/+) mice
Method: Briefly, WT and HB-EGF−/− mice received subcutaneous injection with 200 μg normal sheep IgG (100 μl in each flank of normal sheep IgG (Sigma) diluted to 1 mg/ml in a solution of 50% freund complete adjuvent and 50% saline). Six days later (day 1), glomerulonephritis (GN) was induced by intravenous injection of 50 μl sheep anti-glomerular basement membrane (GBM) serum diluted to 7 mg/ml in saline. Serum injection was repeated twice (days 2 and 3), with serum dilution increased to 70 mg/ml. On days 0, 1, 2, 3, 5 and 7, mice received intraperitoneal injection of either AG1478 (LC Laboratories), a pharmacological inhibitor of EGFR tyrosine kinase activity (30 mg.kg-1.day-1 in 100 μl of a saline solution with 1% carboxymethylcellulose (CMC) and 10% DMSO), or 100 μl of saline solution with 1% CMC and 10% DMSO as control. On day 8, mice were sacrified after body weight measurement and 12 hours urines collection with metabolic cages. […] On day 14, mice were sacrified. Blood was obtained from mice by aortic catheterization. Kidneys from each mouse were processed for immunohistochemistry, protein and mRNA analysis, and the remaining half-kidney fixed in 10% neutral-buffered formalin for histological study.

EGFR = target: T1, EGFR (Mus musculus, UniProt Q01279); assay: Phosphorylation of EGFR in renal cortex/glomeruli (western blot, immunofluorescence) during experimental RPGN; format: in vivo
T1 construct: Proteins were extracted from kidneys using a lysis buffer; from tissue; host or cells: mouse kidney (renal cortex, glomeruli); wild type and HB-EGF-/- mice on mixed C57BL/6J x 129 background
T1 sequence (Q01279 25-1210): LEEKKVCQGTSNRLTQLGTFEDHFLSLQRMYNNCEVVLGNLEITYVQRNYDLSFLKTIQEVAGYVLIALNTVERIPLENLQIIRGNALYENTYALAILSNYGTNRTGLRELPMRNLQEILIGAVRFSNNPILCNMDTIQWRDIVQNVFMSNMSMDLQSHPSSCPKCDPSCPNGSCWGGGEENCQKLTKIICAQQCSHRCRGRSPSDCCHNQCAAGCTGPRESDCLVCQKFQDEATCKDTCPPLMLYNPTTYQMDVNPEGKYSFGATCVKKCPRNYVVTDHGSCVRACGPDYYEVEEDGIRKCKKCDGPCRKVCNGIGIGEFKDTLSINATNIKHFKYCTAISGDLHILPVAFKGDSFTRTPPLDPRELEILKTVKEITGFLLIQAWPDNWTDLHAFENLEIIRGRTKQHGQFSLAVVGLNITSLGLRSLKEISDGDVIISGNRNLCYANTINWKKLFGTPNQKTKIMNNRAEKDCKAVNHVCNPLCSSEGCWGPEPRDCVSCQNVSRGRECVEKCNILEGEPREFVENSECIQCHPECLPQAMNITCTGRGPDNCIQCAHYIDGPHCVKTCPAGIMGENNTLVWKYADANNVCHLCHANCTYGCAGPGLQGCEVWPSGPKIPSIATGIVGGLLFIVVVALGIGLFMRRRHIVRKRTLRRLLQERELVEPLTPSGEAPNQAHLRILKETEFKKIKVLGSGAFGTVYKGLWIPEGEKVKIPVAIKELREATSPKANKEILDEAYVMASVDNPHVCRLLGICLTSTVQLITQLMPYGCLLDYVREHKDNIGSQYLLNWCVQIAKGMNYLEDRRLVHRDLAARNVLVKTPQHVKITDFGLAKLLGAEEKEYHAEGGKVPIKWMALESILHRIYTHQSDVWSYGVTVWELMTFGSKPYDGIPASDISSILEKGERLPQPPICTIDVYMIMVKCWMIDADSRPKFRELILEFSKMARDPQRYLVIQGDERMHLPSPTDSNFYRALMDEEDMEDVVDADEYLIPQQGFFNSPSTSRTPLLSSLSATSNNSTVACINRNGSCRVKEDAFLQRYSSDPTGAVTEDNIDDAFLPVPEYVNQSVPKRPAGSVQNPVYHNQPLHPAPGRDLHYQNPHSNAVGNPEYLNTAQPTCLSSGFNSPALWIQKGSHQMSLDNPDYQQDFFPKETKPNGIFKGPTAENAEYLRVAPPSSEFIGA
Method: On day 14, mice were sacrified.
For immunofluorescence in mouse tissues, cryostat sections of 4 μm were immediately fixed in acetone, washed in PBS and then incubated with antibodies in a humid incubator. Deposits of mouse IgG in kidney were evaluated using FITC rat anti-mouse IgG (FI2000, Vector) (1:100 dilution, incubation for 1 hour at room temperature).
Western blot analysis: Proteins were extracted from kidneys using a lysis buffer (Phosphosafe extraction buffer, Novagen) and quantified according to Bradford's method. […] Immunoblotting was performed using the rabbit anti phospho-EGFR (Cell Signaling) diluted 1:1,000 or a rabbit anti-EGFR diluted 1:5,000 (Cell Signaling) as control for lane loading. Then, horseradish peroxidase-linked donkey secondary antibody (Amersham Pharmacia Biotech) diluted 1:2,000 was added and revelation was subsequently made using ECL plus kit (Amersham Pharmacia Biotech) on autoradiography film, followed by densitometric analysis.

[2] = system: anti-GBM nephrotoxic serum-induced crescentic glomerulonephritis (RPGN) in mice; assay: Histopathology and immunohistochemistry (crescentic glomeruli, CD3 positive cells) in accelerated anti-GBM crescentic glomerulonephritis; format: in vivo, mouse
[3] = system: anti-GBM nephrotoxic serum-induced crescentic glomerulonephritis (RPGN) in mice; assay: Assessment of ascitis, renal function and albuminuria in accelerated anti-GBM crescentic glomerulonephritis; format: in vivo, mouse
Method: Assessment of […], renal function and albuminuria: […] Stage 2 to 4 were associated with clinically evident […] weight gain before sacrifice. Serum and urinary creatinine, and blood urea nitrogen (BUN) were quantified spectrophotometrically using a colorimetric method. Urinary albumin excretion was measured using a specific ELISA assay for quantitative determination of albumin inmouse urine (CellTrend GmbH).

[4] = day 8, AG1478 30 mg/kg i.p., wild type mice, 30 mg/kg
[5] = day 14, erlotinib preventive (d0-14) or curative (d4-14) protocol

Structure (SMILES): COc1cc2ncnc(Nc3cccc(Cl)c3)c2cc1OC [AG1478, 4-(3-Chloroanilino)-6,7-dimethoxyquinazoline]
- death within 8 days of RPGN [1]: no AG1478-treated HB-EGF(+/+) mice died
- phosphorylation of EGFR (in words) (EGFR; AG1478 i.p. in wild type mice vs vehicle only, day 8): prevented the phosphorylation of EGFR
- pEGFR signal in glomeruli (immunofluorescence) (EGFR; day 8 post NTS, AG1478 30 mg/kg/day i.p.): faint or no signal was detectable
- phosphorylation of EGFR blunted (fold) (EGFR; renal cortex, day 8 post NTS, AG1478 30 mg/kg/day i.p. vs vehicle): ~9 fold
- pEFGR/EGFR ratio (EGFR; renal cortex, western blot, day 8 post NTS, AG1478 30 mg/kg/day i.p., wild type mice, n=6): 11 % of vehicle only-treated mice
- crescent formation / renal lesions (in words) [2, 4]: reduces crescent formation; also recorded: dramatically reduced the development of renal lesions
- periglomerular and interstitial CD3+ cell infiltrates [2, 4]: reduces crescent formation and T cells infiltrates; also recorded: absent; also recorded: more effective in preventing cell infiltrate than HB-EGF deficiency
- % of crescentic glomeruli ([2]; day 8 after induction of RPGN, AG1478 30 mg/kg/day i.p., n=6): 6.8±1.7%
- incidence and severity of asciitis ([3]; day 8, AG1478 30 mg/kg i.p., vs vehicle): lower incidence and severity of asciitis
- albumin urinary leakage, renal function / renal failure (in words) ([3]; day 8, AG1478 30 mg/kg i.p., 30 mg/kg): prevents albumin urinary leakage and renal failure; also recorded: renal function was preserved
- albuminuria ([3]; day 8, AG1478 30 mg/kg/day i.p., n=6): 8.9±2.3 g/mmol creatinine
- BUN ([3]; day 8, AG1478 30 mg/kg/day i.p., n=6, in mM): 6.39±2.0

Structure (SMILES): C#Cc1cccc(Nc2ncnc3cc(OCCOC)c(OCCOC)cc23)c1.Cl [erlotinib, [6,7-bis(2-methoxyethoxy)-4-quinazolin-4-yl]-(3-ethynylphenyl)amine]
- necrotic glomerular lesions, cellular crescents, tubular proteinaceous casts and diffuse CD3 positive cells infiltrates ([2]; day 14, delayed erlotinib from day 4 to day 14, Masson trichrome staining): blunted
- proportion of crescentic glomeruli ([2]; day 14, erlotinib 100 mg/kg/day per gavage, preventive (12 hours prior to anti-GBM serum), n=9): 25.0±6.9 ° A)
- development of glomerular injury (in words) [2, 5]: blunted or stopped the development of glomerular injury
- blood urea nitrogen ([3]; day 14, erlotinib 100 mg/kg/day per gavage, preventive, n=9): 3.8 ± 0.4 mmol/L
- renal failure / blood urea nitrogen levels (in words) [3, 5]: prevented renal failure with normal blood urea nitrogen levels
